# In PubChem BioAssay AID2060887 (Molecular Pharmacology Branch, DTP, NCI, 2025):
# Tested on: 782815-120-R-J1-PDC complex spheroid viability
# Assay: Anticancer human tumor 782815-120-R-J1-PDC patient-derived colon adenocarcinoma cell line growth inhibition [RAS]
# Conditions: for IC50: curve of first compound; for viability, T/C: stronger effect = lower value
# Method in brief: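 Multi-cell-type spheroids: tumor cells plus HUVEC endothelial cells and mesenchymal stem cells. RAS-pathway inhibitors were combined with targeted agents, each dosed in half-log steps down from clinical Cmax, or from 10 microM when Cmax was unknown.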
# [1] = second compound 0.00316 µM, first compound 0.0316 µM
# [2] = second compound 0.00316 µM, first compound 0.1 µM
# [3] = second compound 0.00316 µM, first compound 0.316 µM
# [4] = second compound 0.00316 µM, first compound 1 µM
# [5] = second compound 0.01 µM, first compound 0.0316 µM
# [6] = second compound 0.01 µM, first compound 0.1 µM
# [7] = second compound 0.01 µM, first compound 0.316 µM
# [8] = second compound 0.01 µM, first compound 1 µM
# [9] = second compound 0.0316 µM, first compound 0.0316 µM
# [10] = second compound 0.0316 µM, first compound 0.1 µM
# [11] = second compound 0.0316 µM, first compound 0.316 µM
# [12] = second compound 0.0316 µM, first compound 1 µM
# [13] = second compound 0.1 µM, first compound 0.0316 µM
# [14] = second compound 0.1 µM, first compound 0.1 µM
# [15] = second compound 0.1 µM, first compound 0.316 µM
# [16] = second compound 0.1 µM, first compound 1 µM
# [17] = second compound 0.316 µM, first compound 0.0316 µM
# [18] = second compound 0.316 µM, first compound 0.1 µM
# [19] = second compound 0.316 µM, first compound 0.316 µM
# [20] = second compound 0.316 µM, first compound 1 µM
# [21] = second compound 1 µM, first compound 0.0316 µM
# [22] = second compound 1 µM, first compound 0.1 µM
# [23] = second compound 1 µM, first compound 0.316 µM
# [24] = second compound 1 µM, first compound 1 µM
# [25] = second compound 0.00316 µM, first compound 3.16 µM
# [26] = second compound 0.00316 µM, first compound 10 µM
# [27] = second compound 0.01 µM, first compound 3.16 µM
# [28] = second compound 0.01 µM, first compound 10 µM
# [29] = second compound 0.0316 µM, first compound 3.16 µM
# [30] = second compound 0.0316 µM, first compound 10 µM
# [31] = second compound 0.1 µM, first compound 3.16 µM
# [32] = second compound 0.1 µM, first compound 10 µM
# [33] = second compound 0.316 µM, first compound 3.16 µM
# [34] = second compound 0.316 µM, first compound 10 µM
# [35] = second compound 1 µM, first compound 3.16 µM
# [36] = second compound 1 µM, first compound 10 µM
# 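Also: spheroids exposed to compounds for 7 days before reading.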
# 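For viability, T/C in this document: 100% = DMSO vehicle control viability.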
smiles,measurement,setting,value
CCN1CCN(Cc2ccc(Nc3ncc(F)c(-c4cc(F)c5nc(C)n(C(C)C)c5c4)n3)nc2)CC1 + C=CC(=O)N1CCN(c2nc(OCC3CCCN3C)nc3c(F)c(-c4nc(N)cc(C)c4C(F)(F)F)c(Cl)cc23)C(C)C1,IC50,second compound 0.00316 µM,> 1000 nM
same,IC50,second compound 0.01 µM,> 1000 nM
same,IC50,second compound 0.0316 µM,> 1000 nM
same,IC50,second compound 0.1 µM,> 1000 nM
same,IC50,second compound 0.316 µM,> 1000 nM
same,IC50,second compound 1 µM,> 1000 nM
same,"viability, T/C","second compound 0.00316 µM, first compound 0.00316 µM",95.3%
same,"viability, T/C","second compound 0.00316 µM, first compound 0.01 µM",98.8%
same,"viability, T/C",[1],99.3%
same,"viability, T/C",[2],101%
same,"viability, T/C",[3],105%
same,"viability, T/C",[4],128%
same,"viability, T/C","second compound 0.01 µM, first compound 0.00316 µM",98.9%
same,"viability, T/C","second compound 0.01 µM, first compound 0.01 µM",97.2%
same,"viability, T/C",[5],95.8%
same,"viability, T/C",[6],98.2%
same,"viability, T/C",[7],104%
same,"viability, T/C",[8],118%
same,"viability, T/C","second compound 0.0316 µM, first compound 0.00316 µM",102%
same,"viability, T/C","second compound 0.0316 µM, first compound 0.01 µM",105%
same,"viability, T/C",[9],99.5%
same,"viability, T/C",[10],103%
same,"viability, T/C",[11],108%
same,"viability, T/C",[12],118%
same,"viability, T/C","second compound 0.1 µM, first compound 0.00316 µM",93.4%
same,"viability, T/C","second compound 0.1 µM, first compound 0.01 µM",96.1%
same,"viability, T/C",[13],106%
same,"viability, T/C",[14],103%
same,"viability, T/C",[15],108%
same,"viability, T/C",[16],116%
same,"viability, T/C","second compound 0.316 µM, first compound 0.00316 µM",96.5%
same,"viability, T/C","second compound 0.316 µM, first compound 0.01 µM",96.5%
same,"viability, T/C",[17],102%
same,"viability, T/C",[18],99.3%
same,"viability, T/C",[19],111%
same,"viability, T/C",[20],117%
same,"viability, T/C","second compound 1 µM, first compound 0.00316 µM",92%
same,"viability, T/C","second compound 1 µM, first compound 0.01 µM",90.8%
same,"viability, T/C",[21],104%
same,"viability, T/C",[22],96.1%
same,"viability, T/C",[23],108%
same,"viability, T/C",[24],123%
CC(=O)OC12COC1CC(O)C1(C)C(=O)C(O)C3=C(C)C(OC(=O)C(O)C(NC(=O)OC(C)(C)C)c4ccccc4)CC(O)(C(OC(=O)c4ccccc4)C21)C3(C)C (stereo unspecified) + C=CC(=O)N1CCN(c2nc(OCC3CCCN3C)nc3c(F)c(-c4nc(N)cc(C)c4C(F)(F)F)c(Cl)cc23)C(C)C1,IC50,second compound 0.00316 µM,< 31.6 nM
same,IC50,second compound 0.01 µM,< 31.6 nM
same,IC50,second compound 0.0316 µM,< 31.6 nM
same,IC50,second compound 0.1 µM,< 31.6 nM
same,IC50,second compound 0.316 µM,< 31.6 nM
same,IC50,second compound 1 µM,< 31.6 nM
same,"viability, T/C",[1],33.6%
same,"viability, T/C",[2],31.1%
same,"viability, T/C",[3],25.6%
same,"viability, T/C",[4],23.6%
same,"viability, T/C",[25],28.3%
same,"viability, T/C",[26],33.2%
same,"viability, T/C",[5],34.1%
same,"viability, T/C",[6],32%
same,"viability, T/C",[7],25.7%
same,"viability, T/C",[8],22.3%
same,"viability, T/C",[27],25%
same,"viability, T/C",[28],34.1%
same,"viability, T/C",[9],40%
same,"viability, T/C",[10],24.2%
same,"viability, T/C",[11],23.6%
same,"viability, T/C",[12],27.6%
same,"viability, T/C",[29],23.6%
same,"viability, T/C",[30],34.7%
same,"viability, T/C",[13],36.8%
same,"viability, T/C",[14],30.4%
same,"viability, T/C",[15],20.3%
same,"viability, T/C",[16],22.9%
same,"viability, T/C",[31],25%
same,"viability, T/C",[32],29.2%
same,"viability, T/C",[17],37.4%
same,"viability, T/C",[18],27.4%
same,"viability, T/C",[19],25%
same,"viability, T/C",[20],23.5%
same,"viability, T/C",[33],28.4%
same,"viability, T/C",[34],29.6%
same,"viability, T/C",[21],38.1%
same,"viability, T/C",[22],26.9%
same,"viability, T/C",[23],27.4%
same,"viability, T/C",[24],23.6%
same,"viability, T/C",[35],27.5%
same,"viability, T/C",[36],33.3%
C[C@@H](NC(=O)c1ncnc(N)c1Cl)c1ncc(C(=O)Nc2cc(C(F)(F)F)c(Cl)cn2)s1 + C=CC(=O)N1CCN(c2nc(OCC3CCCN3C)nc3c(F)c(-c4nc(N)cc(C)c4C(F)(F)F)c(Cl)cc23)C(C)C1,IC50,second compound 0.00316 µM,> 10000 nM
same,IC50,second compound 0.01 µM,> 10000 nM
same,IC50,second compound 0.0316 µM,> 10000 nM
same,IC50,second compound 0.1 µM,> 10000 nM
same,IC50,second compound 0.316 µM,> 10000 nM
same,IC50,second compound 1 µM,> 10000 nM
same,"viability, T/C",[1],100%
same,"viability, T/C",[2],106%
same,"viability, T/C",[3],97%
same,"viability, T/C",[4],86%
same,"viability, T/C",[25],83.8%
same,"viability, T/C",[26],72.1%
same,"viability, T/C",[5],104%
same,"viability, T/C",[6],105%
same,"viability, T/C",[7],104%
same,"viability, T/C",[8],88.6%
same,"viability, T/C",[27],80.8%
same,"viability, T/C",[28],71.8%
same,"viability, T/C",[9],116%
same,"viability, T/C",[10],107%
same,"viability, T/C",[11],96.6%
same,"viability, T/C",[12],90%
same,"viability, T/C",[29],90.2%
same,"viability, T/C",[30],71.2%
same,"viability, T/C",[13],111%
same,"viability, T/C",[14],101%
same,"viability, T/C",[15],96.8%
same,"viability, T/C",[16],99.8%
same,"viability, T/C",[31],89.9%
same,"viability, T/C",[32],66.3%
same,"viability, T/C",[17],108%
same,"viability, T/C",[18],113%
same,"viability, T/C",[19],97.3%
same,"viability, T/C",[20],101%
same,"viability, T/C",[33],85%
same,"viability, T/C",[34],74.5%
same,"viability, T/C",[21],114%
same,"viability, T/C",[22],108%
same,"viability, T/C",[23],98.5%
same,"viability, T/C",[24],110%
same,"viability, T/C",[35],92.6%
same,"viability, T/C",[36],65.5%
